Data published in patent US10391150B2, “Treatments for migraine and related disorders” (The University of Chicago, priority 2011, dated 2019).
“Also recorded” adds a separate entry of the source.

Assays:
[1] = tested on: OS from cLTP in hippocampal slice cultures; experiment: OS / reactive oxygen species generated from chemical long-term potentiation (cLTP) in slice cultures; type: cell-based, rat; conditions: 3 days treatment (IFN-γ 500 U/mL; IL-11; IGF-1), compared to shams
Method: This beneficial effect of low-level IFN-γ is supported by results from rats. In rats, enrichment, which occurs with hippocampal learning, led to a significant elevation in hippocampal T-cells, IFN-γ and MBP.
Experiments were performed in rat hippocampal slices cultures and SD induced as previously described (Pusic et al., 2011). Results were derived from n≥3-6/group. […] This is consistent with the neural activity increase seen after SD, which mimics the hyperexcitability evident in migraine patients.
This prompted the inventors to examine whether insulin could reduce SD susceptibility by increasing CA3 pyramidal neuron bursting. The inventors induced SD trans-synaptically in rat HSC using electrical stimuli (100 μs pulses @ 10 Hz for 1 s) ranging from 1 to 10,000 nC in order to determine SD threshold in sham and experimental groups (Pusic et al., 2011). Results were based on n≥3-6/group. […] This insulin dose approximates the pharmacological levels seen in humans treated with nasal insulin. […] The inventors hypothesized that the effect of insulin occurred through IGF-1 receptor cross-talk.
The inventors use a well-accepted method for inducing cLTP in slice cultures (Kraig et al., 2010; Otmakhov et al., 2004a; Otmakhov et al., 2004b; Kopec et al., 2006). The protocol consists of raising cAMP levels and increasing synaptic activity using rolipram/forskolin applied in a Mg^2+-free Ringer's solution (36° C.) for 5 min, then allowing slices to recover in normal media.

[2] = tested on: oxidative stress (OS) in hippocampal slice cultures; experiment: Oxidative stress (OS) by CellROX fluorescence in hippocampal slice cultures (CA3); type: cell-based, rat
Method: FIGS. 4A-4F Oxidative stress (OS) from SD and its reduction by IGF-1. (FIG. 4A) Normal cytoarchitecture of a hippocampal slice culture showing pyramidal neuron areas of CA1, dentate gyrus (DG), and the imaging zone for the inventors' work here (dotted line), CA3. (FIG. 4B) OS was measured using CellROX, a fixable fluorescent marker from Invitrogen. […] (FIG. 4D) This reduction versus control SD was significant (p<0.02; n=4 & 5). (FIG. 4E) CellROX can be used to measure relative OS in specific brain cell types.
FIGS. 9a-9f IGF-1 decreased oxidative stress from spreading depression. (FIG. 9a) NeuN immunohistochemical labeling of a hippocampal slice culture, for cytoarchitectural reference and to show the CA3 area of interest (dotted line box) used for quantification of oxidative stress (OS) via CellROX™ fluorescence intensity. (FIGS. 9b-c) Representative CellROX™-labeled hippocampal slices exposed to SD (FIG. 9b) and to 3-day IGF-1 incubation followed by spreading depression (SD) (FIG. 9c). Dotted line boxes illustrate CA3 areas of interest used for relative OS quantifications. […] Again, seven day treatments consisted of exposing cultures to IGF-1 for 12 hours a day for seven days. Note: IGF-1 exposure was continued for the additional 24 hour CellROX™ incubation. Scale bars=400 μm (a) and 200 μm (b and c). Comparisons between groups were made via ANOVA plus Holm-Sidak post hoc testing.
FIGS. 11a-11g IGF-1 decreased CA3 oxidative stress (OS) and its related hyperexcitability. […] Relative evoked excitability was determined as a sum of responses seen (e.g., responses of “2” and a “3” yielded an overall excitability score of five). […] (FIGS. 11d-e) Exemplary images of control (FIG. 11d) slice culture OS compared to increased slice OS induced by exposure to menadione (FIG. 11e). Calibration bar, 200 Dotted boxes indicate CA3 areas of interest used for relative OS quantifications (f and g).
Oxidative stress from SD preferentially rises in astrocytes and microglia, with the latter effect mitigated by IGF-1 (FIG. 13). The inventors have recently shown that spreading depression (SD), the most likely cause of migraine aura and perhaps migraine (Lauritzen and Kraig, 2005), occurs with increased oxidative stress (OS) and that OS, in turn, increases SD susceptibility (Grinberg et al., 2012). Reactive oxygen and nitrogen species that cause OS have both autocrine and paracrine signaling capacities that can affect SD susceptibility by altering excitability (Kishida and Klann, 2007). Accordingly, the inventors looked for the cellular origin of OS from SD. Here the inventors used hippocampal slice cultures (HSC) to probe for cell-specific changes in OS from SD. SD was induced trans-synaptically in rat HSCs using bipolar electrical stimuli at the dentate gyrus (Pusic et al., 2011). Six SDs were induced every 7-9 min over an hr, followed by 24 hr incubation in CellROX™, a fixable fluorogenic probe for measuring OS (Grinberg et al., 2012). HSCs were then fixed in 10% buffered formalin phosphate. Other fixatives (PLP, 4% paraformaldehyde) prevented detection of OS change. Tissue was then labeled for neurons (anti-NeuN), oligodendrocytes (anti-RIP), astrocytes (anti-GFAP), or for microglia (isolectin GS-IB4).

With Insulin-like growth factor 1 [IGF-1] the “OS / reactive oxygen species generated from cLTP” value [1] was “significant reduction in OS from cLTP”, the “baseline slice culture OS versus control” value ([2]; 3-day IGF-1 alone) was “significantly reduce baseline OS; also recorded: reduced slice culture OS” and the “decrease in OS from SD” value ([2]; 3-day exposure to IGF-1) was 30%. The “reduction of baseline OS levels compared with controls” value ([2]; 7-day exposure to IGF-1 alone) was 26%, the “decrease in OS from SD” value ([2]; 7 days IGF-1, phasic) was 73% and the “increased OS induced by SD” value ([2]; IGF-1 (40 ng/mL) for 3 days prior to SD) was “reduction in OS; also recorded: abrogated”. The “increased OS induced by SD” value ([2]; IGF-1 acutely) was “abrogated”, the “increased OS induced by SD” value ([2]; IGF-1 for 7 days prior to SD, 12 hours a day) was “significantly reduced” and the “baseline slice culture OS versus control” value ([2]; acute IGF-1 exposure alone) was “did not reduced slice culture OS”. For the same molecule, the “decrease in OS from SD” value ([2]; acute treatment with IGF-1) was 20%, the “OS induced by menadione versus control” value ([2]; menadione exposure, without or with acute IGF-1) was “abrogated; also recorded: reduced OS from menadione” and the “OS induced by menadione versus control” value ([2]; pretreatment with IGF-1 for 3 days) was “abrogated; also recorded: reduced menadione-induced significant increase in OS”.

B1: Interferon-gamma (protein, listed as Homo sapiens)
chain: MKYTSYILAFQLCIVLGSLGCYCQDPYVKEAENLKKYFNAGHSDVADNGTLFLGILKNWKEESDRKIMQSQIVSFYFKLFKNFKDDQSIQKSVETIKEDMNVKFFNSNKKKRDDFEKLTNYSVTDLNVQRKAIHELIQVMAELSPAAKTGKRKRSQMLFRGRRASQ
With B1 the “OS / reactive oxygen species generated from cLTP” value [1] was “significantly reduced reactive oxygen species” and the OS ([2]; transient (pulsed) IFN-γ 500 U/mL × 12 hours, assessed seven days later) was “OS is reduced; also recorded: similarly reduced”.
